Values of other authors, collected in patent US6924311B2, “Methods for affecting various diseases utilizing LXR compounds” (X-Ceptor Therapeutics, Inc., priority 2001, dated 2005).

Conditions: db/db mice, known anti-diabetic RXR agonist, positive control; cited from earlier work

Compound: CC1(C)CCC(C)(C)c2cc(C3(c4ccc(C(=O)O)cn4)CC3)c(F)cc21 [Compound 2, 6-[1-(3-Fluoro-5,5,8,8-tetramethyl-5,6,7,8-tetrahydro-napthalen-2-yl)-cyclopropyl]-nicotinic acid]
- effect on blood glucose levels: effectively lower blood glucose levels in db/db mice
